Tests used:
Assay in all cases: relative IC50 (inflection point of fitted viability curve, relative to fitted max inhibition); higher = less sensitive
Details in all cases: 72 h
NKL (IL-2 2.5 ng/mL) = system: NKL (IL-2 2.5 ng/mL)
Method: (§1)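 Drug sensitivity and resistance testing: 5 concentrations over a 10,000-fold range, 72 h at 37 °C, viability by CellTiter-Glo normalised to DMSO and benzethonium chloride controls. IC50 is the inflection point of a logistic fit (min fixed at 0, max fitted), so it is relative to the fitted maximal inhibition. Kept only where fitted max inhibition is at least 50%.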

NK-YS (IL-2 2.5 ng/mL) = system: NK-YS (IL-2 2.5 ng/mL)
Method: as §1

[1] = system: normal primary NK cells, pool 2 (3 donors) (IL-2 2.5 ng/mL)
Method: as §1

SNK-6 (IL-2 2.5 ng/mL) = system: SNK-6 (IL-2 2.5 ng/mL)
Method: as §1

[2] = system: normal primary NK cells, pool 3 (3 donors) (IL-2 2.5 ng/mL)
Method: as §1

IMC-1 (IL-2 20 ng/mL) = system: IMC-1 (IL-2 20 ng/mL)
Method: as §1

KAI3 (IL-2 2.5 ng/mL) = system: KAI3 (IL-2 2.5 ng/mL)
Method: as §1

YT (IL-2 2.5 ng/mL) = system: YT (IL-2 2.5 ng/mL)
Method: as §1

KHYG-1 (IL-2 2.5 ng/mL) = system: KHYG-1 (IL-2 2.5 ng/mL)
Method: as §1

[3] = system: normal primary NK cells, pool 1 (3 donors) (IL-2 2.5 ng/mL)
Method: as §1

DERL-7 (IL-2 2.5 ng/mL) = system: DERL-7 (IL-2 2.5 ng/mL)
Method: as §1

NK-92 (IL-2 2.5 ng/mL) = system: NK-92 (IL-2 2.5 ng/mL)
Method: as §1

[4] = system: normal primary NK cells, pool 1 (3 donors), resting (IL-2 0 ng/mL)
Method: as §1

Compound	relative IC50 (NKL (IL-2 2.5 ng/mL)) [nM]	relative IC50 (NK-YS (IL-2 2.5 ng/mL)) [nM]	relative IC50 [1] [nM]	relative IC50 (SNK-6 (IL-2 2.5 ng/mL)) [nM]	relative IC50 [2] [nM]	relative IC50 (IMC-1 (IL-2 20 ng/mL)) [nM]	relative IC50 (KAI3 (IL-2 2.5 ng/mL)) [nM]	relative IC50 (YT (IL-2 2.5 ng/mL)) [nM]	relative IC50 (KHYG-1 (IL-2 2.5 ng/mL)) [nM]	relative IC50 [3] [nM]	relative IC50 (DERL-7 (IL-2 2.5 ng/mL)) [nM]	relative IC50 (NK-92 (IL-2 2.5 ng/mL)) [nM]	relative IC50 [4] [nM]
C[C@]12O[C@H](C[C@]1(O)CO)n1c3ccccc3c3c4c(c5c6ccccc6n2c5c31)CNC4=O [Lestaurtinib]	28.1	85	21.5	38.5	44.1	96.7	11.9	78.3	16	20.9	28.6	31.1	–
CC[C@H](C)C(=O)O[C@H]1C[C@@H](C)C=C2C=C[C@H](C)[C@H](CC[C@@H]3C[C@@H](O)CC(=O)O3)[C@H]21 [Lovastatin]	3520	1940	> 10000	–	> 10000	–	–	–	–	–	–	–	–
C=CCn1c(=O)c2cnc(Nc3ccc(N4CCN(C)CC4)cc3)nc2n1-c1cccc(C(C)(C)O)n1 [MK1775]	57.2	227	–	156	–	361	95.7	190	59.3	–	185	93.8	–
O=C(O)CC[C@H]1CC[C@@](c2cc(F)ccc2F)(S(=O)(=O)c2ccc(Cl)cc2)CC1 [MK-0752]	–	–	> 1000	–	–	–	–	–	–	–	–	–	> 1000
CN(Cc1cnc2nc(N)nc(N)c2n1)c1ccc(C(=O)N[C@@H](CCC(=O)O)C(=O)O)cc1 [Methotrexate]	38.4	19.1	> 5000	9.91	> 5000	26.1	17.9	13.7	17.8	–	268	21.1	–
N#CCNC(=O)c1ccc(-c2ccnc(Nc3ccc(N4CCOCC4)cc3)n2)cc1 [Momelotinib]	178	796	810	891	1000	1800	205	1140	173	177	394	346	–
CNC(=O)c1ccc2cc([C@@]3(O)CCn4cncc43)ccc2c1 [Orteronel]	–	> 10000	> 10000	–	> 10000	–	> 10000	–	–	–	–	–	–
Cc1ccc(Nc2nccc(N(C)c3ccc4c(C)n(C)nc4c3)n2)cc1S(N)(=O)=O [Pazopanib]	–	–	–	31.3	> 10000	–	–	–	–	–	–	–	–
NS(=O)(=O)OC[C@@H]1C[C@@H](n2ccc3c(N[C@H]4CCc5ccccc54)ncnc32)C[C@@H]1O [Pevonedistat]	448	507	449	39.7	335	107	48.7	55.1	69	156	430	633	–
CS(=O)(=O)N1CCN(Cc2cc3nc(-c4cccc5[nH]ncc45)nc(N4CCOCC4)c3s2)CC1 [Pictilisib]	821	1180	1950	–	–	> 10000	1490	1260	2010	1120	472	421	694
O=C(NC[C@H](O)CO)c1ccncc1Nc1ccc(I)cc1F [Pimasertib]	49	–	–	> 10000	–	–	–	–	83	–	–	–	–
C[C@]12C=CC(=O)C=C1CC[C@@H]1[C@@H]2[C@@H](O)C[C@@]2(C)[C@H]1CC[C@]2(O)C(=O)CO [Prednisolone]	24.7	–	165	–	–	> 10000	> 10000	–	–	185	65.7	> 10000	69.9
Cn1c(Nc2ccc(C(F)(F)F)cc2)nc2cc(Oc3ccnc(-c4ncc(C(F)(F)F)[nH]4)c3)ccc21 [RAF265]	–	–	–	–	–	–	–	–	–	–	–	175	47.4
COc1cc(OC)c(/C=C/S(=O)(=O)Cc2ccc(OC)c(NCC(=O)O)c2)c(OC)c1 [Rigosertib]	43	40.4	–	53.5	–	37.5	48.5	46.9	35.8	–	36.7	53.6	840
CCC(C)(C)C(=O)O[C@H]1C[C@@H](C)C=C2C=C[C@H](C)[C@H](CC[C@@H]3C[C@@H](O)CC(=O)O3)[C@H]21 [Simvastatin]	2450	2380	–	–	–	–	–	–	–	–	–	–	–
C=CCN(/C=C1/C(=O)O[C@H](COC)[C@@]2(C)C1=C(O)C(=O)C1=C2[C@H](OC(C)=O)C[C@]2(C)C(=O)CC[C@@H]12)CC=C [Sonolisib]	–	–	–	–	–	–	–	–	–	1200	–	–	1630
CC(C)n1cnc2c(NCCc3ccc(O)cc3)nc(-c3csc4ccccc34)nc21 [StemRegenin 1]	1620	–	3420	3860	–	–	3180	2530	2450	–	112	1180	1900
CN(N=O)C(=O)N[C@@H](C=O)[C@@H](O)[C@H](O)[C@H](O)CO [Streptozocin]	> 10000	–	–	–	> 10000	–	> 10000	–	–	> 10000	> 10000	> 10000	> 10000
Cn1ncnc1[C@H]1c2n[nH]c(=O)c3cc(F)cc(c23)N[C@@H]1c1ccc(F)cc1 [Talazoparib]	2.3	22.2	–	134	–	164	28.1	–	93.8	–	–	59.8	–
CC/C(=C(\c1ccccc1)c1ccc(OCCN(C)C)cc1)c1ccccc1 [Tamoxifen]	1430	–	2590	3700	–	–	2450	2700	–	2060	1680	2940	1680
O=C1NC(=O)[C@@H](c2cn3c4c(cccc24)CCC3)[C@@H]1c1c[nH]c2ccccc12 [Tivantinib]	370	118	–	50.8	–	310	167	238	221	–	347	115	–
NC(=S)N/N=C/c1ncccc1N [Triapine]	3560	1450	–	3550	–	3720	1320	3750	642	2490	3580	748	1510
O=C(CCCCCCC(=O)Nc1ccc([C@H]2O[C@@H](CSc3nc(-c4ccccc4)c(-c4ccccc4)o3)C[C@@H](c3ccc(CO)cc3)O2)cc1)NO [Tubacin]	1330	2830	–	1800	–	2650	2070	2630	3090	–	1620	1660	3800
Clc1ccc(Nc2nnc(Cc3ccncc3)c3ccccc23)cc1 [Vatalanib]	–	–	–	–	> 10000	–	–	–	–	> 10000	–	–	–
CC[C@]1(O)C[C@H]2CN(CCc3c([nH]c4ccccc34)[C@@](C(=O)OC)(c3cc4c(cc3OC)N(C=O)[C@H]3[C@@](O)(C(=O)OC)[C@H](OC(C)=O)[C@]5(CC)C=CCN6CC[C@]43[C@@H]65)C2)C1 [Vincristine]	2.9	5.45	–	4.74	–	3.41	7.9	3.6	3.14	–	3.38	9.88	–
Oc1nc(-c2ccc(C(F)(F)F)cc2)nc2c1CSCC2 [XAV-939]	–	–	–	968	–	–	–	–	–	–	–	–	> 10000
